In ChEMBL document CHEMBL1135290, “Synthesis of sub-micromolar inhibitors of MraY by exploring the region originally occupied by the diazepanone ring in the liposidomycin structure” (Bioorg Med Chem Lett, 2002):

Legend:
Enterococcus faecium = assay: Tested in vitro for antibacterial activity against Enterococcus faecium using micro-broth dilution method; assay type: functional
Escherichia coli = assay: Tested in vitro for antibacterial activity against Escherichia coli using micro-broth dilution method; assay type: functional
Streptococcus pyogenes = assay: Tested in vitro for antibacterial activity against Streptococcus pyogenes using micro-broth dilution method; assay type: functional
[1] = Inhibitory activity against Translocase I
Staphylococcus aureus = assay: Tested in vitro for antibacterial activity against Staphylococcus aureus using micro-broth dilution method; assay type: functional

Row | MIC (Enterococcus faecium) [µg/mL] | MIC (Escherichia coli) [µg/mL] | MIC (Streptococcus pyogenes) [µg/mL] | IC50 [1] [nM] | MIC (Staphylococcus aureus) [µg/mL] | SMILES
1 | > 80 | > 80 | > 80 | 900 | > 80 | CCCCCNC[C@H](O[C@@H]1O[C@H](CN)[C@@H](O)[C@H]1O)[C@@H]1C[C@@H](O)[C@H](n2ccc(=O)[nH]c2=O)O1.O=C(O)C(F)(F)F
2 | 80 | > 80 | > 80 | 820 | > 80 | CCCCCCCCNC[C@H](O[C@@H]1O[C@H](CN)[C@@H](O)[C@H]1O)[C@@H]1C[C@@H](O)[C@H](n2ccc(=O)[nH]c2=O)O1.O=C(O)C(F)(F)F
3 | 20 | 2.5 | 2.5 | 700 | 5 | CCCCCCCCCCCCNC[C@H](O[C@@H]1O[C@H](CN)[C@@H](O)[C@H]1O)[C@@H]1C[C@@H](O)[C@H](n2ccc(=O)[nH]c2=O)O1.O=C(O)C(F)(F)F
4 | 80 | 40 | 20 | 330 | 40 | CCCCCCCCCCNC[C@H](O[C@@H]1O[C@H](CN)[C@@H](O)[C@H]1O)[C@@H]1C[C@@H](O)[C@H](n2ccc(=O)[nH]c2=O)O1.O=C(O)C(F)(F)F
